# Activity calls are given as the source filed them. No rule for the calls is given here.
# Molecular target: Mu-type opioid receptor (Homo sapiens) + Delta-type opioid receptor (Homo sapiens) (UniProt P35372+P41143)
# Assay: agonists of MOR-DOR heterodimerization, dose response, counter-screen for MC4R biased agonist project, cell-based, luminescence (AID 602264)
# Settings: cell-based OPRM1-OPRD1 heterodimerization
# Chain of Mu-type opioid receptor (Homo sapiens) + Delta-type opioid receptor (Homo sapiens) (P35372 whole entry, looked up): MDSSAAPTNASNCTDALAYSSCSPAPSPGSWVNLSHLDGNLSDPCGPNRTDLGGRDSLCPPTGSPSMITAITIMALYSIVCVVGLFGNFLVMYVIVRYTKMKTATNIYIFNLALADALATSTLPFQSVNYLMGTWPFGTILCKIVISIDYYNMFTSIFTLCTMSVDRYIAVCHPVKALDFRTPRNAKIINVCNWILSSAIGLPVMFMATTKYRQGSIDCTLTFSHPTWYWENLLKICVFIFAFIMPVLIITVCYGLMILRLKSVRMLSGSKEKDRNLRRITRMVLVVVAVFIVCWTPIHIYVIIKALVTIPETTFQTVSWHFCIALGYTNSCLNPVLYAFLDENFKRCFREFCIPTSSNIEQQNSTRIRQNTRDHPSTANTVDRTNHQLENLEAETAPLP
# Chain of Mu-type opioid receptor (Homo sapiens) + Delta-type opioid receptor (Homo sapiens) (P41143 whole entry, looked up): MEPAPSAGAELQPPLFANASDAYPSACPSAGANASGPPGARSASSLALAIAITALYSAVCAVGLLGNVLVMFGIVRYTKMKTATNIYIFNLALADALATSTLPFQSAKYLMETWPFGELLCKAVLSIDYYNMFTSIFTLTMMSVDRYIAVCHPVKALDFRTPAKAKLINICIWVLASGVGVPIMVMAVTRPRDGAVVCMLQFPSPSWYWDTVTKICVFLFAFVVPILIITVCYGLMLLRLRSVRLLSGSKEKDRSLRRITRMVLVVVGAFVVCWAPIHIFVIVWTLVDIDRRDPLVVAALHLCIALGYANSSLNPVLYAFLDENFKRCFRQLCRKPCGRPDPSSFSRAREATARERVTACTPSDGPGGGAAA
row,Compound,EC50
1,CN(C)CCCNC(=O)c1ccc(-c2nc(-c3ccc(Cl)cc3)cs2)cc1,> 64.6 µM (inactive)
2,O=C(NC(c1ccc(Cl)cc1)c1cccnc1)C1CCN(CCOc2ccc(Cl)cc2Cl)CC1 (stereo not given),> 92.4 µM (inactive)
3,COc1cccc(/C=C2/SC(=S)N(CCCC(=O)Nc3ccc(O)cc3)C2=O)c1,> 92.5 µM (inactive)
4,CN(C)CCNC(=O)c1cccc(-c2cc(NC=O)c3ncc(-c4cccc(C(F)(F)F)c4)n3c2)c1,> 92.5 µM (inactive)
5,CCOc1cc(CNCCc2c[nH]c3ccccc23)cc(Cl)c1OCC,> 92.5 µM (inactive)
6,NC(c1ccccc1)c1csc(NC(=O)Nc2ccccc2Oc2ccccc2)n1 (stereo not given),> 92.5 µM (inactive)
7,O=C(CCN1C(=O)/C(=C/C=C/c2ccccc2)SC1=S)Nc1cccnc1,> 92.5 µM (inactive)
8,O=C(NC(c1ccc(Cl)cc1)c1ccccn1)C1CCN(CCOc2ccc(Cl)cc2Cl)CC1 (stereo not given),> 92.4 µM (inactive)
9,CC(=O)Nc1cc(-c2ccccc2)cn2c(-c3ccc(F)c(Cl)c3)cnc12,> 92.5 µM (inactive)
10,FC(F)(F)c1cccnc1Oc1ccc(C2=NCCS2)cc1,> 92.4 µM (inactive)
11,CN(C)CCCN(C(=O)CCc1ccccc1)c1nc2ccc(Cl)cc2s1,> 92.4 µM (inactive)
12,Cc1ccc(O)c(C(=O)/C=C/c2ccc3c(c2)OCCCO3)c1,> 64.6 µM (inactive)
13,COc1ccc(-n2nc(C(=O)NCC(=O)Nc3ccccn3)c3ccccc3c2=O)cc1Cl,> 64.6 µM (inactive)
14,NC(Cc1ccc(C(F)(F)F)cc1)c1csc(NC(=O)Nc2ccccc2)n1 (stereo not given),> 92.5 µM (inactive)
15,CCC(C)(C)c1ccc(OCCCC[n+]2cccc(C)c2C)c(C(C)(C)CC)c1,> 64.6 µM (inactive)
16,COc1cc(C(=O)Nc2nnc(-c3sccc3C)s2)cc(OC)c1OC,> 92.5 µM (inactive)
17,CC(=O)c1cccc(-c2cnc3c(NC=O)cc(-c4ccc(N(C)C)cc4)cn23)c1,> 64.6 µM (inactive)
18,COc1ccccc1NC(=O)Nc1nc(C(N)Cc2ccc(Cl)cc2)cs1 (stereo not given),> 92.5 µM (inactive)
19,CC(=O)Nc1ccc(-c2csc(NC(=O)Nc3ccccc3)n2)cc1,> 64.6 µM (inactive)
20,CCn1c(SCC(=O)Nc2ccc(C(C)=O)cc2)nc2nc3c(cc2c1=O)CCCC3,> 64.6 µM (inactive)
21,CC(=O)Nc1cc(-c2ccc(N(C)C)cc2)cn2c(-c3ccc(F)cc3)cnc12,> 64.6 µM (inactive)
22,COc1ccc(CNCCc2ccc(Cl)cc2)cc1OCc1ccccc1,> 92.5 µM (inactive)

row,Compound,EC50
1,OC(CNCCc1ccc(C(F)(F)F)cc1)COc1cccc2ccccc12 (stereo not given),> 92.5 µM (inactive)
2,Clc1ccc(C[n+]2c(-c3ccccc3)cc(-c3ccccc3)cc2-c2ccccc2)cc1,> 92.5 µM (inactive)
3,CC(=O)Nc1cc(-c2ccc(N(C)C)cc2)cn2c(-c3ccc(F)c(Cl)c3)cnc12,> 92.5 µM (inactive)
4,COC(=O)c1c(NC(=O)CC2SC(N)=NC2=O)sc2c1CCC(C(C)(C)C)C2 (stereo not given),> 92.5 µM (inactive)
5,Cc1cc(C)nc(Nc2nc(C(N)Cc3ccc(C(F)(F)F)cc3)cs2)n1 (stereo not given),> 92.5 µM (inactive)
6,COc1ccccc1-c1cc(NC(C)=O)c2ncc(-c3cccc(C(C)=O)c3)n2c1,> 64.6 µM (inactive)
7,Cc1cc(C)nc(Nc2nc(C(N)Cc3ccc(Cl)cc3)cs2)n1 (stereo not given),> 92.5 µM (inactive)
8,Cc1cc(NC(=O)c2cncc(Br)c2)ccc1NC(=O)c1cc2ccccc2o1,> 64.6 µM (inactive)
9,Cc1ccc(CN2CCC(c3cc(-c4ccc(Cl)cc4)n[nH]3)CC2)cc1,> 92.5 µM (inactive)
10,Cc1ccccc1NC(=O)c1ccc(COc2ccc3c(C)cc(=O)oc3c2)cc1,> 64.6 µM (inactive)
11,CC(=O)Nc1cc(-c2ccc(C(=O)N3CCOCC3)cc2)cn2c(-c3ccccc3)cnc12,> 92.5 µM (inactive)
12,O=C(Nc1cccc(NC(=S)NC(=O)c2cccs2)c1)c1ccccc1,> 92.5 µM (inactive)
13,Clc1ccc(/C=N/NC2=Nc3cccc4cccc2c34)cc1,> 92.4 µM (inactive)
14,COc1ccc2nc(NC(=O)CSc3nc4cccnc4n3C)sc2c1,> 64.6 µM (inactive)
15,Cc1cc(C)c2sc(N(CCCN(C)C)C(=O)c3ccc(Br)s3)nc2c1,> 92.5 µM (inactive)
16,N#C/C(=C\c1ccc(-c2ccc(F)cc2)o1)C(=O)Nc1nc(-c2cccs2)cs1,> 64.6 µM (inactive)
17,c1ccc(-c2sc3ccccc3c2-c2ccc(OCCN3CCCC3)cc2)cc1,> 92.5 µM (inactive)
18,Cc1cc(C)c2nc(Nc3nc(-c4ccccc4)cc(=O)[nH]3)nc(C)c2c1,> 92.5 µM (inactive)
19,CCCCCCCCCCCCCCCC[n+]1ccc(/C=N/O)cc1,> 64.6 µM (inactive)
20,CC(/C=C/C=C/c1ccccc1)=N/NC(=O)CNc1ccccc1C,> 64.6 µM (inactive)
21,O=C1C2=C(NC(=S)NC2c2ccc(Cl)cc2)NC(c2ccc(Cl)cc2)N1c1ccc(Cl)cc1 (stereo not given),inactive
22,COc1cccc(-c2cnc3c(NC=O)cc(-c4ccoc4)cn23)c1,> 64.6 µM (inactive)

row,Compound,EC50
1,CCN1C(=O)/C(=C2/Sc3ccc(OC)cc3N2C)SC1=Nc1cccc(O)c1,> 92.5 µM (inactive)
2,Cc1ccccc1-c1nc(-c2ccc(NC(=O)c3ccc4c(c3)OCO4)cc2)no1,> 92.4 µM (inactive)
3,COc1ccc(-c2sc3ccc(N4CCOCC4)cc3c2C#CC2(O)CCCCC2)cc1,> 64.6 µM (inactive)
4,O=CNc1cc(-c2ccsc2)cn2c(-c3ccccc3)cnc12,> 92.5 µM (inactive)
5,COc1ccc2oc(=O)c(-c3csc(Nc4cccc(O)c4)n3)cc2c1,> 92.4 µM (inactive)
6,COc1ccc(-c2cc(NC(C)=O)c3ncc(-c4cccc(C(F)(F)F)c4)n3c2)c(OC)c1,> 92.5 µM (inactive)
7,CC(=O)Nc1cc(-c2cccc(F)c2)cn2c(-c3ccc(F)cc3)cnc12,> 92.5 µM (inactive)
8,Cc1ccc(C(=O)Cn2c(C(=O)/C=C/c3ccccc3)nc3ccccc32)cc1,> 64.6 µM (inactive)
9,Cc1ccc2nc(Nc3ccc4[nH]c(=O)[nH]c4c3)c(-n3nc(C)cc3C)nc2c1,> 64.6 µM (inactive)
10,O=C(COc1ccc2c(c1)OCO2)Nc1ccc2c(c1)oc1ccccc12,> 92.5 µM (inactive)
11,N#C/C(=C\c1cn(CCOc2ccccc2)c2ccccc12)C(=O)NCc1ccco1,> 92.5 µM (inactive)
12,N#C/C(=C\c1cn(CCOc2ccccc2F)c2ccccc12)C(=O)NCc1cccs1,> 92.4 µM (inactive)
13,CC1(C)Oc2ccc3ccc(=O)oc3c2/C(=C/Nc2ccc(O)cc2)C1=O,> 64.6 µM (inactive)
14,Cc1cccc(C)c1-n1cccc1/C=C1\SC(=S)N(c2cccc(C(=O)O)c2)C1=O,> 92.5 µM (inactive)
15,CC1CCC(C(C)C)C(OC(=O)C[n+]2cc(-c3ccc(Cl)cc3)n3c2CCCCC3)C1 (stereo not given),> 92.5 µM (inactive)
16,CCCOc1ccc(C(=O)C(CCC(CNCC)C(=O)c2ccc(OCCC)cc2)CNCC)cc1 (stereo not given),> 92.5 µM (inactive)
17,O=C(N/N=C/c1ccc(OCc2ccccc2)cc1)c1cccs1,> 92.5 µM (inactive)
18,CCCCNc1c(-c2cccc(-c3cc(C(C)=O)cs3)c2)nc2ccc(C)cn12,> 64.6 µM (inactive)
19,CCCCCCCNC(=O)C1(CC2CC(c3ccc(Cl)cc3)=NO2)CCNCC1 (stereo not given),> 64.6 µM (inactive)
20,CC(=O)Nc1cc(-c2ccccc2F)cn2c(-c3cccc(C(F)(F)F)c3)cnc12,> 92.5 µM (inactive)
21,CCSc1nnc(NC(=O)c2csc3c2CCCC3)s1,> 92.5 µM (inactive)

# — PubChem BioAssay AID602264 (The Scripps Research Institute Molecular Screening Center, 2012)
